Tests used:
HMGCoAR = assay: Western blot, HMGCoAR protein level in HepG2 cells; type: cell-based, human; settings: HepG2, 50 µM, 24 h, mean ± SD
Procedure: The HepG2 cell line was bought from ATCC (HB-8065, ATCC from LGC Standards, Milan, Italy) and was cultured in DMEM high glucose with stable L-glutamine, supplemented with 10% FBS, 100 U/mL penicillin, 100 µg/mL streptomycin (complete growth medium) with incubation at 37 °C under 5% CO2 atmosphere.
Immunoblotting experiments were performed using optimized protocol. A total of 1.5 × 10^5 HepG2 cells/well (24-well plate) were treated with 50 μM of P5 and P5-met for 24 h. After each treatment, the supernatants were collected and stored at −20°C; cells were scraped in 40 µL ice-cold lysis buffer (RIPA buffer + inhibitor cocktail + 1:100 PMSF + 1:100 Na-orthovanadate + 1:1000 β-mercaptoethanol) and transferred in ice-cold microcentrifuge tubes. […] Total proteins were quantified by the Bradford’s method and 50 μg of total proteins loaded on a pre-cast 7.5% Sodium Dodecyl Sulfate-Polyacrylamide (SDS-PAGE) gel at 130 V for 45 min. […] Target proteins, on milk or BSA blocked membrane, were detected by primary antibodies as follows: anti-SREBP-2, anti-LDLR, anti-HMGCoAR, anti-PCSK9, anti HNF1-α and anti-β-actin. Secondary antibodies conjugated with HRP and a chemiluminescent reagent were used to visualize target proteins and their signal was quantified using the Image Lab Software (Biorad, Hercules, CA, USA). […]

[1] = tested on: differentiated Caco-2 cells; assay: Trans-epithelial transport across differentiated Caco-2 cell monolayer; type: in vitro ADME, human; settings: for Amount in the BL compartment after 30 min: alone, 500 μM in AP, Caco-2 AP to BL
Procedure: Human intestinal Caco-2 cells, obtained from INSERM (Paris, France), where cultured according to a published protocol. For differentiation, they were seeded on polycarbonate filters, 12 mm diameter, 0.4 µm pore diameter (Transwell, Corning Inc., Lowell, MA, US) at a 3.5 × 10^5 cells/cm^2 density in complete medium supplemented with 10% FBS in both AP and BL compartments for 2 d to allow the formation of a confluent cell monolayer. Starting from day three after seeding, cells were transferred to FBS-free medium in both compartments, supplemented with ITS (final concentration 10 mg/L insulin (I), 5.5 mg/L transferrin (T), 6.7 μg/L sodium selenite (S); GIBCO-Invitrogen, San Giuliano Milanese, Italy) only in the basolateral (BL) compartment, and allowed to differentiate for 18–21 days with regular medium changes three times weekly.
The transepithelial electrical resistance (TEER) of differentiated Caco-2 cells was measured at 37 °C using the voltmeter apparatus Millicell (Millipore Co., Billerica, MA, USA), immediately before and at the end of the transport experiments. In addition, at the end of transport experiments, cells were incubated from the AP side with 1 mM phenol-red in PBS containing Ca^++ (0.9 mM) and Mg^++ (0.5 mM) for 1 h at 37 °C, to monitor the paracellular permeability of the cell monolayer. The BL solutions were then collected and NaOH (70 µL, 0.1 N) was added before reading the absorbance at 560 nm by a microplate reader Synergy H1 from Biotek (Winooski, VT, USA). Phenol-red passage was quantified using a standard phenol-red curve. Only filters showing TEER values and phenol red passages similar to untreated control cells were considered for peptide transport analysis.
Prior to experiments, the cell monolayer integrity and differentiation were checked by TEER measurement as described in detail above. Peptide trans-epithelial passage was assayed in differentiated Caco-2 cells in transport buffer solution (137 mM NaCl, 5.36 mM KCl, 1.26 mM CaCl2, and 1.1 mM MgCl2, 5.5 mM glucose) according to previously described conditions. In order to reproduce the pH conditions existing in vivo in the small intestinal mucosa, the apical (AP) solutions were maintained at pH 6.0 (buffered with 10 mM morpholinoethane sulfonic acid), and the basolateral (BL)solutions were maintained at pH 7.4 (buffered with 10 mM […]). Prior to transport experiments, cells were washed twice with 500 µL PBS containing Ca^++ and Mg^++. Peptide transportation by mature Caco-2 cells was assayed by loading the AP compartment with P5 alone, in mixture with […] (P3) and […] (P7), and/or P5-met (500 μM) in the AP transport solution (500 µL) and the BL compartment with the BL transport solution (700 µL). The plates were incubated at 37 °C and the BL solutions were collected at different time points (i.e., 15, 30, 60, 90, and 120 min) and replaced with fresh solutions pre-warmed at 37 °C. All BL and AP solutions collected at the end of the transport experiment were stored at −80 °C prior to analysis. Three independent transport experiments were performed, each in duplicate. In order to assess the involvement of transcytotic process in peptides passage, parallel transport experiments were performed in the presence of 500 nM wortmannin in both the AP and BL compartment, over 60 min incubation time.
The medium collected at the end of transport experiments from AP and BL chambers (500 µL and 700 µL, respectively) were freeze-dried and residues were solubilized in HPLC water (100 µL). Samples were desalted with C18 resin ZipTip by using 80% ACN, 0.1% FA as eluent (Millipore Corporation, Bedford, MA, USA). Each sample was lyophilized under speed-vacuum for 5 h at 30°C and re-dissolved in 50 μL (0.1% formic acid), before MS analysis. Purified BL samples were analyzed on a SL IT mass spectrometer interfaced with a HPLC- Chip Cube source (Agilent Technologies, Palo Alto, CA, USA). […]

Amount in the BL compartment after 30 min ([1]; AP pH 6.0 / BL pH 7.4, 37 °C, LC-MS/MS MRM, mean ± SD of three independent experiments): 0.54 ± 0.02 µg
Amount in the BL compartment after 30 min ([1]; conversion of the µg value): 0.613 nmol
Substance: H-LPKHSDAD-OH [Peptide P5-met]
HMGCoAR protein level versus the control (HMGCoAR): 117.9 ± 12.1%
Effect of the transcytosis inhibitor wortmannin on transport across Caco-2 cells ([1]; 500 nM wortmannin in AP and BL compartments, 60 min, HPLC-Chip MS of BL compartment): transported also in the presence of wortmannin
